# Experimental data as given in PubChem BioAssay (NCI).
#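 Briefly, cells in 96-well plates were exposed to five compound concentrations for 48 h, and endpoints were estimated by linear interpolation. GI50 marks 50% less growth. TGI denotes the concentration required for complete inhibition of growth.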
# Columns and labels:
# Experiment in all cases: inhibition of tumour cell growth, NCI panel, 48 h
# [1] = tested on: HCC-2998 colon
# [2] = tested on: IGROV1 ovarian
# [3] = tested on: SN12C renal
# [4] = tested on: SR leukemia
# [5] = tested on: LOX IMVI melanoma
# [6] = tested on: SK-MEL-5 melanoma
# [7] = tested on: SK-OV-3 ovarian
# [8] = tested on: OVCAR-3 ovarian
# [9] = tested on: DU-145 prostate
# [10] = tested on: NCI/ADR-RES ovarian
# [11] = tested on: RXF 393 renal
# [12] = tested on: SF-539 CNS
# [13] = tested on: SF-295 CNS
# [14] = tested on: MALME-3M melanoma
# [15] = tested on: COLO 205 colon
# [16] = tested on: SW-620 colon
# [17] = tested on: CAKI-1 renal
# [18] = tested on: CCRF-CEM leukemia
# [19] = tested on: NCI-H23 lung
# [20] = tested on: SNB-19 CNS
# [21] = tested on: SK-MEL-2 melanoma
# [22] = tested on: A498 renal
# [23] = tested on: HS 578T breast
# [24] = tested on: UACC-257 melanoma
# [25] = tested on: SF-268 CNS
# [26] = tested on: SK-MEL-28 melanoma
# [27] = tested on: MDA-MB-435
# [28] = tested on: M14 melanoma
# [29] = tested on: MOLT-4 leukemia
compound,measurement,setting,value
COc1cc(NCCCCCN=C(N)N)c2ncccc2c1,GI50,[1],3.97 µM
same,TGI,[1],> 33.9 µM
same,GI50,[2],1.03 µM
same,TGI,[2],> 36 µM
same,GI50,[3],3.57 µM
same,TGI,[3],13.7 µM
same,GI50,[4],6.28 µM
same,TGI,[4],40.6 µM
same,GI50,[5],8.21 µM
same,TGI,[5],> 56.1 µM
same,GI50,[6],2.31 µM
same,TGI,[6],6.86 µM
same,GI50,[7],60 µM
same,TGI,[7],> 100 µM
same,GI50,[8],0.468 µM
same,TGI,[8],9.03 µM
same,GI50,[9],35.1 µM
same,TGI,[9],> 100 µM
same,GI50,[10],> 100 µM
same,TGI,[10],> 100 µM
same,GI50,[11],24.9 µM
same,TGI,[11],> 94.7 µM
same,GI50,[12],4.68 µM
same,TGI,[12],19.4 µM
same,GI50,[13],17.1 µM
same,TGI,[13],97.8 µM
same,GI50,[14],1.97 µM
same,TGI,[14],8.92 µM
same,GI50,[15],2.92 µM
same,TGI,[15],9.3 µM
same,GI50,[16],4.97 µM
same,TGI,[16],> 100 µM
same,GI50,[17],> 100 µM
same,TGI,[17],> 100 µM
same,GI50,[18],5.1 µM
same,TGI,[18],> 74.3 µM
same,GI50,[19],1.74 µM
same,TGI,[19],18.9 µM
same,GI50,[20],5.62 µM
same,TGI,[20],30.3 µM
same,GI50,[21],3.31 µM
same,TGI,[21],16.1 µM
same,GI50,[22],42.5 µM
same,TGI,[22],> 100 µM
same,GI50,[23],19 µM
same,TGI,[23],> 65.4 µM
same,GI50,[24],4.38 µM
same,TGI,[24],16.7 µM
same,GI50,[25],3.59 µM
same,TGI,[25],22.6 µM
same,GI50,[26],14.6 µM
same,TGI,[26],38.6 µM
same,GI50,[27],16.7 µM
same,TGI,[27],42.3 µM
same,GI50,[28],17.7 µM
same,TGI,[28],54.1 µM
same,GI50,[29],4.53 µM
same,TGI,[29],> 74.4 µM
